The experiment concerns vaginal atrophy in female ovariectomized Wistar Han rats. In words: Assay I: assessment of the effect on vaginal atrophy (vaginal smears: cornified cells, maturation index, overall trophism). The format is in vivo, rat. The note with it: dose 10 times less than the usual dose; rats of both groups (cream and gel). As to the method:
In this study a total of 8 female ovariectomized Wistar Han rats were used, which were randomly distributed into 2 groups with 4 animals each. Group A was treated with Formulation 1 whereas Group B was treated with Formulation 2.
After 18 days had elapsed from the reception of the ovariectomized animals, several vaginal smears were periodically performed in each rat, until the menopausal condition (particularly vaginal atrophy) was verified in all the rats, determining the maturation index of the vaginal epithelium.
Once the treatment had started, Formulations 1 (0.005% estriol cream) and 2 (0.005% estriol gel) were administered to experimental Group A and B, respectively, once a day for 5 days. The administration was carried out by vaginal route, in an amount of 5.8 mg of formulation/animal (corresponding to 0.29 μg of estriol/animal), using a positive displacement multipipette equipped with a special tip. […]
The effect of the treatment with each of the formulations was assessed by means of the appearance of cornified cells, the determination of the maturation index of the vaginal epithelium and the evaluation of the overall trophism.

As to `C[C@]12CC[C@@H]3c4ccc(O)cc4CC[C@H]3[C@@H]1C[C@@H](O)[C@@H]2O` [estriol], the “Effect on vaginal atrophy condition” value is “reverses the vaginal atrophy condition”.

For the origin of these results see patent publication US8273730B2, “Use of estriol in low doses” (Italfarmaco, SA, priority 2007, dated 2012).
